Laboratory results from the NIST ThermoML archive (doi:10.1016/j.jct.2017.02.022).

Tests used:
[1] = xn = mol fraction of the nth substance listed; details: 101.3 kPa, Liquid; for speed of sound: Frequency=3 MHz, Sing-around technique in a fixed-path interferometer; for mass density: Vibrating tube method
[2] = refractive index (Na D-line) (dimensionless); xn = mol fraction of the nth substance listed; details: 101.3 kPa, Liquid, Standard Abbe refractometry

COS(=O)(=O)[O-].Cn1cc[n+](C)c1 [1,3-dimethylimidazolium methylsulfate] + CCCO
Details	mass density, [1] [kg/m3]	refractive index, [2]	speed of sound, [1] [m/s]
298 K, x1 = 0.039	843	1.389	1225
298 K, x1 = 0.208	995	1.413	1348
298 K, x1 = 0.382	1107	1.434	1481
298 K, x1 = 0.561	1193	1.452	1605
298 K, x1 = 0.702	1246	1.464	1684
298 K, x1 = 0.912	1307	1.477	1773
298 K, x1 = 1	1329	1.483	1811
303 K, x1 = 0.039	839	1.387	1208
303 K, x1 = 0.208	989	1.41	1332
303 K, x1 = 0.382	1100	1.432	1465
303 K, x1 = 0.561	1186	1.45	1590
303 K, x1 = 0.702	1239	1.461	1670
303 K, x1 = 0.912	1301	1.476	1760
303 K, x1 = 1	1322	1.481	1799
308 K, x1 = 0.039	834	1.385	1191
308 K, x1 = 0.208	984	1.408	1316
308 K, x1 = 0.382	1095	1.429	1450
308 K, x1 = 0.561	1181	1.447	1575
308 K, x1 = 0.702	1234	1.459	1656
308 K, x1 = 0.912	1297	1.474	1747
308 K, x1 = 1	1319	1.48	1787
313 K, x1 = 0.039	830	1.382	1175
313 K, x1 = 0.208	979	1.404	1300
313 K, x1 = 0.382	1090	1.426	1434
313 K, x1 = 0.561	1176	1.444	1561
313 K, x1 = 0.702	1229	1.456	1642
313 K, x1 = 0.912	1293	1.472	1734
313 K, x1 = 1	1315	1.479	1775

CCn1cc[n+](C)c1.COS(=O)(=O)[O-] [1-ethyl-3-methylimidazolium methylsulfate] + CCCCCO
Details	mass density, [1] [kg/m3]	refractive index, [2]	speed of sound, [1] [m/s]
298 K, x1 = 0.05	849	1.413	1291
298 K, x1 = 0.284	999	1.435	1425
298 K, x1 = 0.459	1089	1.448	1527
298 K, x1 = 0.613	1157	1.458	1603
298 K, x1 = 0.768	1216	1.468	1662
298 K, x1 = 0.922	1268	1.476	1721
298 K, x1 = 1	1292	1.48	1762
303 K, x1 = 0.05	845	1.412	1274
303 K, x1 = 0.284	994	1.434	1409
303 K, x1 = 0.459	1085	1.447	1511
303 K, x1 = 0.613	1153	1.457	1588
303 K, x1 = 0.768	1212	1.466	1648
303 K, x1 = 0.922	1265	1.475	1708
303 K, x1 = 1	1289	1.479	1750
308 K, x1 = 0.05	841	1.411	1258
308 K, x1 = 0.284	990	1.432	1393
308 K, x1 = 0.459	1081	1.445	1496
308 K, x1 = 0.613	1149	1.455	1573
308 K, x1 = 0.768	1208	1.465	1634
308 K, x1 = 0.922	1261	1.473	1695
308 K, x1 = 1	1285	1.478	1739
313 K, x1 = 0.05	837	1.409	1241
313 K, x1 = 0.284	986	1.43	1377
313 K, x1 = 0.459	1077	1.443	1480
313 K, x1 = 0.613	1145	1.453	1559
313 K, x1 = 0.768	1205	1.463	1620
313 K, x1 = 0.922	1258	1.472	1682
313 K, x1 = 1	1282	1.476	1727

CCn1cc[n+](C)c1.COS(=O)(=O)[O-] [1-ethyl-3-methylimidazolium methylsulfate] + CCCCO
Details	mass density, [1] [kg/m3]	refractive index, [2]	speed of sound, [1] [m/s]
298 K, x1 = 0.041	843	1.403	1260
298 K, x1 = 0.219	976	1.424	1372
298 K, x1 = 0.417	1087	1.442	1504
298 K, x1 = 0.571	1156	1.454	1593
298 K, x1 = 0.731	1214	1.464	1662
298 K, x1 = 0.909	1268	1.475	1729
298 K, x1 = 1	1292	1.48	1762
303 K, x1 = 0.041	839	1.401	1243
303 K, x1 = 0.219	972	1.422	1356
303 K, x1 = 0.417	1083	1.44	1488
303 K, x1 = 0.571	1152	1.452	1578
303 K, x1 = 0.731	1210	1.462	1648
303 K, x1 = 0.909	1264	1.473	1716
303 K, x1 = 1	1289	1.479	1750
308 K, x1 = 0.041	835	1.398	1226
308 K, x1 = 0.219	967	1.419	1340
308 K, x1 = 0.417	1078	1.437	1473
308 K, x1 = 0.571	1147	1.449	1563
308 K, x1 = 0.731	1206	1.461	1634
308 K, x1 = 0.909	1261	1.472	1702
308 K, x1 = 1	1285	1.478	1739
313 K, x1 = 0.041	830	1.395	1209
313 K, x1 = 0.219	963	1.416	1324
313 K, x1 = 0.417	1074	1.435	1457
313 K, x1 = 0.571	1143	1.447	1548
313 K, x1 = 0.731	1202	1.459	1620
313 K, x1 = 0.909	1257	1.47	1689
313 K, x1 = 1	1282	1.476	1727
